Measurements published in PubChem BioAssay (NCI).
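Cells were grown in 96-well plates and exposed to each compound for 48 hours at five concentrations; endpoints were interpolated linearly between bracketing concentrations, or set to the highest concentration if not reached. Definition used: TGI = concentration required for complete inhibition of growth.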

Legend:
Test in all cases: inhibition of tumour cell growth, NCI panel, 48 h
[1] = tested on: 786-0 renal
[2] = tested on: A498 renal
[3] = tested on: ACHN renal
[4] = tested on: BT-549 breast
[5] = tested on: CAKI-1 renal
[6] = tested on: CCRF-CEM leukemia
[7] = tested on: COLO 205 colon
[8] = tested on: DU-145 prostate
[9] = tested on: EKVX NSCLC
[10] = tested on: HCC-2998 colon
[11] = tested on: HCT-116 colon
[12] = tested on: HCT-15 colon
[13] = tested on: HL-60(TB) leukemia
[14] = tested on: HOP-62 NSCLC
[15] = tested on: HOP-92 NSCLC
[16] = tested on: HS 578T breast
[17] = tested on: HT29 colon
[18] = tested on: IGROV1 ovarian
[19] = tested on: K-562 leukemia
[20] = tested on: KM12 colon
[21] = tested on: LOX IMVI melanoma
[22] = tested on: M14 melanoma
[23] = tested on: MALME-3M melanoma
[24] = tested on: MCF7 breast
[25] = tested on: MDA-MB-435
[26] = tested on: MDA-N
[27] = tested on: MOLT-4 leukemia
[28] = tested on: NCI-H226 lung
[29] = tested on: NCI-H23 lung
[30] = tested on: NCI-H460 lung
[31] = tested on: NCI-H522 lung
[32] = tested on: NCI/ADR-RES ovarian
[33] = tested on: OVCAR-3 ovarian
[34] = tested on: OVCAR-4 ovarian
[35] = tested on: OVCAR-5 ovarian
[36] = tested on: OVCAR-8 ovarian
[37] = tested on: PC-3 prostate
[38] = tested on: RPMI-8226 leukemia
[39] = tested on: RXF 393 renal
[40] = tested on: SF-268 CNS
[41] = tested on: SF-295 CNS
[42] = tested on: SF-539 CNS
[43] = tested on: SK-MEL-2 melanoma
[44] = tested on: SK-MEL-28 melanoma
[45] = tested on: SK-MEL-5 melanoma
[46] = tested on: SK-OV-3 ovarian
[47] = tested on: SN12C renal
[48] = tested on: SNB-75 CNS
[49] = tested on: SR leukemia
[50] = tested on: SW-620 colon
[51] = tested on: T-47D breast
[52] = tested on: UACC-257 melanoma
[53] = tested on: UACC-62 melanoma
[54] = tested on: UO-31 renal
[55] = tested on: A549 NSCLC
[56] = tested on: MDA-MB-231 breast
[57] = tested on: SNB-19 CNS
[58] = tested on: TK-10 renal
[59] = tested on: U251 CNS

Measured: TGI

Clc1ccc(-c2nnc(-c3c(Cl)c(Cl)c(Cl)c(Cl)c3-c3nc4ccccc4[nH]3)o2)cc1
not listed: [55] | [56] | [57] | [58] | [59]
> 100 µM: all other assays above

COc1ccc(C(c2ccc3c(c2)OCO3)N2C(=O)CCC2C(=O)O)cc1 (stereo unspecified)
not listed: [16] | [39]
> 100 µM: all other assays above

Cc1ccc(C2SCC(=O)N2NC(=O)c2ccncc2)s1 (stereo unspecified)
not listed: [13] | [16] | [30] | [48]
> 100 µM: all other assays above
